“Also recorded” adds a separate entry of the source.
What was measured:
[1] = test system: male Sprague-Dawley rats; experiment: Locomotor activity (Photobeam Activity System); type: in vivo; conditions: GVG 150 mg/kg or 300 mg/kg i.p., 2.5 hours before
Description: Animals were prehandled for 5 minutes each day for one week prior to the experiment to reduce handling stress. […] The animals were transported to the testing area one hour before each experiment. […] The locomotor cages themselves are 41.3×41.3×30.5 cm clear acrylic cages. The electronic system (Photobeam Activity system, San Diego Instruments, San Diego, Calif.) used to monitor locomotor activity consists of 16 infrared beams projecting across the cages from left to right and 16 beams from front to back. All the infrared beams are approximately 0.39 cm from the floor.
In this example the procedures outlined in Section 4 and 5 of Materials and Methods were followed.

[2] = test system: rats; experiment: Nicotine-induced conditioned place preference; type: in vivo
From the text: A total of 8 rats were examined for each treatment pairing. Animals received 4 pairings over an 8 day period, one pairing per day. […] The protocol on days 1 and 2 was repeated 3 additional times.
The CPP apparatus was made entirely of plexiglass, except for the floor in one of the pairing chambers, which was made of a stainless steel plate with holes (0.5 mm in diameter) spaced 0.5 mm from edge to edge. The two pairing chambers differed in visual and tactile cues. One chamber was entirely light blue with the stainless steel floor and the second chamber was light blue with horizontal black stripes (2.5 cm wide) spaced 3.8 cm apart with a smooth plexiglass floor.
The conditioning procedure consisted of 20 sessions carried out consecutively over 20 days. The first three sessions were habituation sessions, during which the animals were handled for 5 minutes per day and exposed to the sights and sounds of the test room. […] The amount of time spent in each chamber was recorded using an automated infrared beam electronically coupled to a timer.
The animals were habituated as described above. […] Subsequently, the animals were then placed into the appropriate chamber for 30 minutes. This was repeated for 8 pairings over a 16 day period. On the test day, animals were placed in the CPP apparatus and allowed free access to the all of the CPP chambers and the amount of time spent in chamber was recorded.

[3] = test system: extracellular DA in the NACC; experiment: In vivo microdialysis: nicotine-induced increases in extracellular NACC DA; design: species or system rats
From the text: All animals were used under an IACUC-approved protocol and with strict adherence to the NIH guidelines. Adult male Sprague-Dawley rats (200-300 g, Taconic Farms), housed in the animals care facility under 12:12 light/dark conditions, were placed into 6 groups (n=5-9), anesthetized and siliconized guide cannulae were stereotactically implanted into the right NACC (2.0 mm anterior and 1.0 mm lateral to bregms, and 7.0 mm ventral to the cortical surface) at least 4 days prior to study. […] Animals were placed in bowls, and probes were inserted and flushed with ACSF overnight. On the day of the study, a minimum of three samples were injected to determine baseline stability. Samples were collected for 20 min. and injected on-line (CMA/160, BAS). The average Dopamine concentration of these three stable samples was defined as control (100%), and all subsequent treatment values were transformed to a percentage of that control. […] The high performance liquid chromatography (HPLC) system consists of a BAS reverse-phase column (3.0 μC-18), a BAS LC-4C electrochemical transducer with a dual/glassy carbon electrode set at 650 mV, a computer that analyzes data on-line using a commercial software package (Chromograph Bioanalytical Systems), and a dual pen chart recorder. The mobile phase (flow rate 1.0 ml/min) consisted of 7.0% methanol, 50 mM sodium phosphate monobasic, 1.0 mM sodium octyl sulfate, and 0.1 mm EDNA, pH 4.0. […] Upon completion of the study, animals were decapitated and frozen sections were obtained for probe placement verification.
The open circles are control animals.
In all studies, animals were placed in the microdialysis bowls the night before the experiment and artificial cerebrospinal fluid (ACSF) was perfused through the microdialysis probes at a flow rate of 2.0 μl/min. At the end of each study, animals were sacrificed and their brains were removed and sectioned for probe placement verification.

[4] = test system: extracellular DA in the NACC; experiment: Microdialysis: methamphetamine-induced increases in NACC DA; type: in vivo, rats; conditions: Rattus norvegicus
From the text: All animals were used under an IACUC-approved protocol and with strict adherence to the NIH guidelines. Adult male Sprague-Dawley rats (200-300 g, Taconic Farms), housed in the animals care facility under 12:12 light/dark conditions, were placed into 6 groups (n=5-9), anesthetized and siliconized guide cannulae were stereotactically implanted into the right NACC (2.0 mm anterior and 1.0 mm lateral to bregms, and 7.0 mm ventral to the cortical surface) at least 4 days prior to study. Microdialysis probes (2.0 mm, Bioanalytical Systems, BAS, West Lafayette, Ind.) were positioned within the guide cannulae and artificial cerebrospinal fluid (ACSF, 155.0 mM NA^−, 1.1 mM Ca^2−, 2.9 mM K^−, 132.76 mM Cl^−, and 0.83 mM Mg^2−) was administered through the probe using a CMA/100 microinfusion pump (BAS) at a flow rate of 2.0 μl/min. Animals were placed in bowls, and probes were inserted and flushed with ACSF overnight. On the day of the study, a minimum of three samples were injected to determine baseline stability. Samples were collected for 20 min. and injected on-line (CMA/160, BAS). The average Dopamine concentration of these three stable samples was defined as control (100%), and all subsequent treatment values were transformed to a percentage of that control. […] The high performance liquid chromatography (HPLC) system consists of a BAS reverse-phase column (3.0 μC-18), a BAS LC-4C electrochemical transducer with a dual/glassy carbon electrode set at 650 mV, a computer that analyzes data on-line using a commercial software package (Chromograph Bioanalytical Systems), and a dual pen chart recorder. The mobile phase (flow rate 1.0 ml/min) consisted of 7.0% methanol, 50 mM sodium phosphate monobasic, 1.0 mM sodium octyl sulfate, and 0.1 mm […], pH 4.0. DA eluted at 7.5 min. Upon completion of the study, animals were decapitated and frozen sections were obtained for probe placement verification.
Methamphetamine at a dose of 1.25 mg/kg i.p. and 2.5 mg/kg i.p. was administered to the animals. It was noted that methamphetamine elevated extracellular DA concentrations in the NACC by approximately 2500% over basal levels, 100 minutes following administration of 2.5 mg/kg and approximately 1500% over basal levels following administration of 1.25 mg/kg (FIG. 6). DA returned to basal levels approximately 200 minutes following administration.

[5] = acquisition, GVG 37.5 mg/kg i.p. 2.5 hours before nicotine 0.4 mg/kg s.c., 8 pairings
[6] = acquisition, GVG 75 mg/kg i.p. 2.5 hours before nicotine 0.4 mg/kg s.c., 8 pairings
[7] = acquisition, GVG 75 mg/kg i.p. 2.5 hours prior to nicotine 0.4 mg/kg s.c. (Table XII)
[8] = expression, Saline/Nicotine pairings, GVG 37.5 mg/kg on test day
[9] = expression, Saline/Nicotine pairings, GVG 75 mg/kg on test day
[10] = expression, Saline/Nicotine pairings, GVG 150 mg/kg on test day

locomotor activity compared to saline pretreated controls [1]: did not alter locomotor activity
SMILES: C=CC(N)CCC(=O)O (racemic) [GVG, 4-amino-5-hexanoic acid]
acquisition of nicotine-induced CPP ([2]; GVG 37.5 mg/kg): did not significantly block and not | acquisition phase of nicotine-induced CPP ([2]; GVG 75 mg/kg): significantly blocked; also recorded: abolish | Time spent in chambers, Paired [2, 5]: 8.8 ± 0.5 min | Time spent in chambers, Unpaired [2, 5]: 6.2 ± 0.5 min | Time spent in chambers, Paired [2, 6]: 6.9 ± 0.9 min | Time spent in chambers, Unpaired [2, 6]: 8.1 ± 0.9 min | Time spent in chambers, Paired [2, 7]: 6.4 ± 0.3^4 min | Time spent in chambers, Unpaired [2, 7]: 8.6 ± 0.3^5 min | Time spent in chambers, Paired [2, 8]: 6.8 ± 1.0 min | Time spent in chambers, Unpaired [2, 8]: 8.2 ± 1.0 min | Time spent in chambers, Paired [2, 9]: 6.4 ± 0.3 min | Time spent in chambers, Unpaired [2, 9]: 8.6 ± 0.3 min | Time spent in chambers, Paired [2, 10]: 5.0 ± 0.9 min | Time spent in chambers, Unpaired [2, 10]: 10.0 ± 0.9 min | basal DA levels prior to nicotine administration ([3]; GVG 75 mg/kg): no effect on basal DA levels | effect on nicotine-induced increases in DA ([3]; GVG 75 mg/kg i.p. 2.5 hours before nicotine 0.4 mg/kg): no effect | effect on nicotine-induced increases in DA ([3]; GVG 100 mg/kg i.p. 2.5 hours before nicotine 0.4 mg/kg): completely abolished; also recorded: completely blocked | effect on nicotine-induced increases in DA ([3]; GVG 100 mg/kg i.p. 2.5 hours before nicotine 0.4 mg/kg, listed as vigabatrin): completely blocked | effect on nicotine-induced increases in DA ([3]; GVG 150 mg/kg i.p. 2.5 hours before nicotine): blocks; also recorded: completely abolished | basal DA levels prior to nicotine administration ([3]; GVG 90, 100 or 150 mg/kg): lowered basal DA levels | inhibition at 90 mg/kg ([3]; Rattus norvegicus, ip, GVG 90 mg/kg i.p. 2.5 hours before nicotine 0.4 mg/kg): ~50% | effect on nicotine-induced increases in extracellular DA ([3]; chronically nicotine treated, GVG 100 mg/kg 2.5 hours prior to nicotine): completely abolished | nicotine-induced increase of extracellular DA above baseline ([3]; chronically nicotine treated, GVG 100 mg/kg 12 hours prior to challenge): approximately 25% | inhibition at 300 mg/kg [4]: ~38% | inhibition at 600 mg/kg [4]: ~58%

— patent US6890951B2, “Treatment of addiction and addiction-related behavior” (Brookhaven Science Associates LLC, priority 1998, dated 2005)
